Assay results: US9776995B2, “Bicyclic sulfonamide compounds as sodium channel inhibitors” (AMGEN INC., priority 2013, dated 2017)

These compounds were tested against Nav 1.5 (Homo sapiens (Human), UniProt Q14524) (assay: in-vitro Nav 1.5 PX data). Details: read-out: Nav 1.5 PX IC50; PatchXpress (PX), in vitro.
Nav 1.5, sequence (Q14524 whole entry): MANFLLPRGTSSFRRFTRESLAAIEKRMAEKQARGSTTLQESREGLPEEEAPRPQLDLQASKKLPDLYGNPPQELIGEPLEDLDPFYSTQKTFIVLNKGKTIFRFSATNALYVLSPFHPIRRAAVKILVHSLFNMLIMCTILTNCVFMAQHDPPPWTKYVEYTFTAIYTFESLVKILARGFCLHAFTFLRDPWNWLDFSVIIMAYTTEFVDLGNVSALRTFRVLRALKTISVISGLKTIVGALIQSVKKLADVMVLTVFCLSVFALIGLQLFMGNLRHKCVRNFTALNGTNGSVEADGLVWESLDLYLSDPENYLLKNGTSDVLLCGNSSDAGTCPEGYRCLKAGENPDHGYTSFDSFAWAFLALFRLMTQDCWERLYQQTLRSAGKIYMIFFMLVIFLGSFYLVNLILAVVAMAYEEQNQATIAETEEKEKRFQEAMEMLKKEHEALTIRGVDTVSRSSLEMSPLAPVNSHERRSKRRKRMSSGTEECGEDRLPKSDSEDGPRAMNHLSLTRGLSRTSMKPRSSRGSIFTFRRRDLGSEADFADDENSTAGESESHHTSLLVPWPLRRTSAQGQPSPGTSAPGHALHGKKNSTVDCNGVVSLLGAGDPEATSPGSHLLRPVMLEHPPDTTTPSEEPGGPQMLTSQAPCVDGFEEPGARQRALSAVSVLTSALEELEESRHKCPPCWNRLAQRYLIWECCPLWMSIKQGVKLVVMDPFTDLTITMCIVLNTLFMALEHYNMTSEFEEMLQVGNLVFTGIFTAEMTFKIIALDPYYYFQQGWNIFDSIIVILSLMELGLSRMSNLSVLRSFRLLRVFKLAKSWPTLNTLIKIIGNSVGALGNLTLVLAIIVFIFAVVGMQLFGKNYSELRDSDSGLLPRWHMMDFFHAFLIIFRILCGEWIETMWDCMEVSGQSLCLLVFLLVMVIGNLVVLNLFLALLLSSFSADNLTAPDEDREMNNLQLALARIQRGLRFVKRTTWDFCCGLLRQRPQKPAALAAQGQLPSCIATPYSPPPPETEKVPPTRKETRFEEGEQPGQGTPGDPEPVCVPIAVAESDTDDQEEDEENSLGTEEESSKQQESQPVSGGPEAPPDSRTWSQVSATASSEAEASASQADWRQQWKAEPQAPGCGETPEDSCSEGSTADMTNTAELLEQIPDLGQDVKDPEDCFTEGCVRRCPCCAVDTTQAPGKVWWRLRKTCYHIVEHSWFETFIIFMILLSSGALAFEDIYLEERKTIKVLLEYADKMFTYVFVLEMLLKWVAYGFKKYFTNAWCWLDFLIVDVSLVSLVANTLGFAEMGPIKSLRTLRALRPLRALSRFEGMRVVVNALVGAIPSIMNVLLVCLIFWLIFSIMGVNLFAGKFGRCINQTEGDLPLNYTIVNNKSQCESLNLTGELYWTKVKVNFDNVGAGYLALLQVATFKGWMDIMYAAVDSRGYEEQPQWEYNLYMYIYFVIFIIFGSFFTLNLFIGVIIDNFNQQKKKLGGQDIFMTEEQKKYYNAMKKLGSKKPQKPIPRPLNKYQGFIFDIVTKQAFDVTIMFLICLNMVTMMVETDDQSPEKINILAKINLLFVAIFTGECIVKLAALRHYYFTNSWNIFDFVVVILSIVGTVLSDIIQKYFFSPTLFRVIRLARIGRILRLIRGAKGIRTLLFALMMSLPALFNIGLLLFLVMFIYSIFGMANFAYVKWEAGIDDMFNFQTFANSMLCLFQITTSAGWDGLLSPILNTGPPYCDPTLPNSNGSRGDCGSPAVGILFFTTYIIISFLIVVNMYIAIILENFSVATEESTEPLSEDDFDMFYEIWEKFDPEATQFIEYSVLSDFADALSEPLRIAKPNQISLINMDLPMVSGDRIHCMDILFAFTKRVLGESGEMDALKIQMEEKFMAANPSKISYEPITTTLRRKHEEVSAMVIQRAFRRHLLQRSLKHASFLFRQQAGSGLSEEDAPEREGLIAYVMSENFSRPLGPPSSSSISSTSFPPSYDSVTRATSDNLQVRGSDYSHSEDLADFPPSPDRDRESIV

Row | Structure (SMILES) | IC50
1 | COc1cc(-c2ccc(C)c(F)c2)c(C#N)cc1-c1nccc2cc(S(=O)(=O)Nc3ccon3)ccc12 [Example 81, 1-(2-cyano-3′-fluoro-5-methoxy-4′-methyl-4-biphenylyl)-N-3-isoxazolyl-6-isoquinolinesulfonamide] | > 10000 nM
2 | COc1cc(-c2cc(F)cnc2OC)c(C#N)cc1-c1nccc2cc(S(=O)(=O)Nc3ccon3)ccc12 [Example 83, 1-(5-cyano-4-(5-fluoro-2-methoxy-3-pyridinyl)-2-methoxyphenyl)-N-3-isoxazolyl-6-isoquinolinesulfonamide] | > 10000 nM

Same assay, conditions: read-out: Nav 1.5 PX IC50; in-vitro Nav 1.5 PX data

Row | Structure (SMILES) | IC50
3 | COc1cc(-c2cc(C)cc(F)c2)c(C#N)cc1-c1nccc2cc(S(=O)(=O)Nc3ccncn3)ccc12 [Example 164, 1-(2-cyano-3′-fluoro-5-methoxy-5′-methyl-4-biphenylyl)-N-4-pyrimidinyl-6-isoquinolinesulfonamide] | > 30000 nM
4 | COc1cc(-c2cc(C)c(C)cc2C)c(C#N)cc1-c1nccc2cc(S(=O)(=O)Nc3ccncn3)ccc12 [Example 165, 1-(2-cyano-5-methoxy-2′,4′,5′-trimethyl-4-biphenylyl)-N-4-pyrimidinyl-6-isoquinolinesulfonamide] | > 30000 nM

Same assay, conditions: read-out: Nav 1.5 PX IC50; in-vitro PX (PatchXpress) data

Row | Structure (SMILES) | IC50
5 | COc1cc(-c2ccc(F)c(C)n2)c(C)cc1-c1ncnc2cc(S(=O)(=O)Nc3ccon3)ccc12 [Example 33] | > 10000 nM
6 | COc1ccc(F)cc1-c1cc(OC)c(-c2ncnc3cc(S(=O)(=O)Nc4ccon4)ccc23)cc1C [Example 191, 4-(5′-fluoro-2′,5-dimethoxy-2-methyl-4-biphenylyl)-N-3-isoxazolyl-7-quinazolinesulfonamide] | > 10000 nM

Same assay, conditions: read-out: Nav 1.5 PX IC50; in-vitro PX data

Row | Structure (SMILES) | IC50
7 | COc1cc(-c2cccc(Cl)c2)c(F)cc1-c1nccc2cc(S(=O)(=O)Nc3ccon3)ccc12 [Example 116, 1-(3′-chloro-2-fluoro-5-methoxy-4-biphenylyl)-N-3-isoxazolyl-6-isoquinolinesulfonamide] | > 10000 nM

Each compound was assayed against Nav 1.7 (Homo sapiens (Human), UniProt Q15858) (assay: Nav 1.7 in vitro PX assay (PatchXpress whole cell voltage clamp)). Details: HEK 293 cells stably transfected with human Nav1.7; PatchXpress; partially inactivated state.
Nav 1.7, sequence (Q15858 whole entry): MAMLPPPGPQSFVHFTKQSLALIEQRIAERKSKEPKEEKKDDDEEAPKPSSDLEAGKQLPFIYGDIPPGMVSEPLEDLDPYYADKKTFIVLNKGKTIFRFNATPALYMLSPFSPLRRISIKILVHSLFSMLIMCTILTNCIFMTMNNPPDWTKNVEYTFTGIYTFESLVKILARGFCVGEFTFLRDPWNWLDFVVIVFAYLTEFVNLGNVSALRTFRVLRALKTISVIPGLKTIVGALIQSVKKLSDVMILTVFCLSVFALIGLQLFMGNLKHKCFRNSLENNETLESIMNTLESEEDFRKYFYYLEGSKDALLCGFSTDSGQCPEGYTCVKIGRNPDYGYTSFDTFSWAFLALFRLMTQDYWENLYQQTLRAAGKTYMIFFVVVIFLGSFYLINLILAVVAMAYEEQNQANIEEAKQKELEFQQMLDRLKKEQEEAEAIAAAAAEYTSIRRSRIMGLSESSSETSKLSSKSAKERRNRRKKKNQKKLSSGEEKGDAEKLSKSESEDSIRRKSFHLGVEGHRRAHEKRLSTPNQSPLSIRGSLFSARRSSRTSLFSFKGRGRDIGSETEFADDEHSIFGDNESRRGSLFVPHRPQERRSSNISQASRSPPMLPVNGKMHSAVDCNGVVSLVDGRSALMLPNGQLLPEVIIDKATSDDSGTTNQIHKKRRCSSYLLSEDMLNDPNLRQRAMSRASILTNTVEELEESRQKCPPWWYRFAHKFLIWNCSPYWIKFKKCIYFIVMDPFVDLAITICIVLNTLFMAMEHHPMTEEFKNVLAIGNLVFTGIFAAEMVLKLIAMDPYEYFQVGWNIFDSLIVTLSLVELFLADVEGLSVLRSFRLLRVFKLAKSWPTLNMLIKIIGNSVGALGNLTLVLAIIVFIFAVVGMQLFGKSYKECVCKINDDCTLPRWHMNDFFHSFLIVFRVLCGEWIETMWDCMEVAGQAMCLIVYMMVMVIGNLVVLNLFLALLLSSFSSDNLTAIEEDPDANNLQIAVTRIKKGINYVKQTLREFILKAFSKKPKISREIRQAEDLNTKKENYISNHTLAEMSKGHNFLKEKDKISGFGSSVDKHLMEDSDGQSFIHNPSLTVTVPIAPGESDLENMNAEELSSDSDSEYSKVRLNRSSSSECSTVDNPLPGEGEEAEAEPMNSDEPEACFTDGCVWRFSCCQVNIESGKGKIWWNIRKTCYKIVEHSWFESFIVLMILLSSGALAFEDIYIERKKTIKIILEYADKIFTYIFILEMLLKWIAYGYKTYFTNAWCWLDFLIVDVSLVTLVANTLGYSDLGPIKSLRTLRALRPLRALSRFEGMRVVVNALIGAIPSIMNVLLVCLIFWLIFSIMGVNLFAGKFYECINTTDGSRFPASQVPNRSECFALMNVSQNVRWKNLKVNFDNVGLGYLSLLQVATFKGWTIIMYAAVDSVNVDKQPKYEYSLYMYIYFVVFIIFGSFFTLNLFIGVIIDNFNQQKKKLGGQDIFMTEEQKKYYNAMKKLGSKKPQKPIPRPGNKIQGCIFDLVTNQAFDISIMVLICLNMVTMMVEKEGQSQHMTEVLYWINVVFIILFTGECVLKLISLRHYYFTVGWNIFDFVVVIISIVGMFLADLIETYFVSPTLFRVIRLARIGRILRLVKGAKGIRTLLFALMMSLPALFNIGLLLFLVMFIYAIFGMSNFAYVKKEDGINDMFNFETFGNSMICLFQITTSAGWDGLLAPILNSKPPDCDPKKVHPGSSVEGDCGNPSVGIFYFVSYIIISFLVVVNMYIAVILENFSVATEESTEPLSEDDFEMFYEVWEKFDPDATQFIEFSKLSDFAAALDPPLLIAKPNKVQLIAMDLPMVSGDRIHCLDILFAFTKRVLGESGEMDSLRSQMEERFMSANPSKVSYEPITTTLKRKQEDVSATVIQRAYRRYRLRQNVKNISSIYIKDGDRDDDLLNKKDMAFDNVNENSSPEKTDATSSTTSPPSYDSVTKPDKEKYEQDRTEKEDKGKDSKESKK
Format: cell-based

Row | Structure (SMILES) | IC50
8 | COc1cc(-c2cccc(F)c2)c(Cl)cc1-c1ncnc2cc(S(=O)(=O)Nc3ccc(F)cn3)ccc12 [Example 479] | 221 nM
9 | COc1cc(F)c(-c2ccc(F)nc2)cc1-c1nccc2cc(S(=O)(=O)Nc3ccon3)ccc12 [Example 497, 1-(4-fluoro-5-(6-fluoro-3-pyridinyl)-2-methoxyphenyl)-N-3-isoxazolyl-6-isoquinolinesulfonamide] | 479 nM
10 | CCOc1ccc(-c2cc(OC)c(-c3ncnc4cc(S(=O)(=O)Nc5ccon5)ccc34)cc2F)cc1C [Example 535, 4-(4′-ethoxy-2-fluoro-5-methoxy-3′-methyl-4-biphenylyl)-N-3-isoxazolyl-7-quinazolinesulfonamide] | 610 nM
11 | COc1cc(-c2cc(C)cc(C)c2)c(F)cc1-c1ncnc2cc(S(=O)(=O)Nc3ccon3)ccc12 [Example 536, 4-(2-fluoro-5-methoxy-3′,5′-dimethyl-4-biphenylyl)-N-3-isoxazolyl-7-quinazolinesulfonamide] | 51 nM
12 | COc1cc(Cl)cc(-c2cc(OC)c(-c3ncnc4cc(S(=O)(=O)Nc5ccon5)ccc34)cc2F)c1 [Example 537, 4-(3′-chloro-2-fluoro-5,5′-dimethoxy-4-biphenylyl)-N-3-isoxazolyl-7-quinazolinesulfonamide] | 36 nM
13 | COc1cc(-c2cccc(Cl)c2)cc(F)c1-c1nccc2cc(S(=O)(=O)Nc3ccon3)ccc12 [Example 538, 1-(3′-chloro-3-fluoro-5-methoxy-4-biphenylyl)-N-3-isoxazolyl-6-isoquinolinesulfonamide] | 298 nM
14 | COc1cc(-c2ccc(C(F)(F)F)cc2)c(F)cc1-c1nccc2cc(S(=O)(=O)Nc3ccon3)ccc12 [Example 539, 1-(2-fluoro-5-methoxy-4′-(trifluoromethyl)-4-biphenylyl)-N-3-isoxazolyl-6-isoquinolinesulfonamide] | 237 nM
15 | COc1cc(-c2cccc(C(F)(F)F)c2)c(F)cc1-c1c2ccc(S(=O)(=O)Nc3ccon3)cc2cc(=O)n1C [Example 546, 1-(2-fluoro-5-methoxy-3′-(trifluoromethyl)-4-biphenylyl)-N-3-isoxazolyl-2-methyl-3-oxo-2,3-dihydro-6-isoquinolinesulfonamide] | 29 nM
16 | COc1cc(-c2cc(F)cc(Cl)c2)c(F)cc1-c1[nH]c(=O)cc2cc(S(=O)(=O)Nc3ccon3)ccc12 [Example 547, 1-(3′-chloro-2,5′-difluoro-5-methoxy-4-biphenylyl)-N-3-isoxazolyl-3-oxo-2,3-dihydro-6-isoquinolinesulfonamide] | 20 nM
17 | COc1cc(-c2ccc(Cl)c(C)c2)c(F)cc1-c1[nH]c(=O)cc2cc(S(=O)(=O)Nc3ccon3)ccc12 [Example 548, 1-(4′-chloro-2-fluoro-5-methoxy-3′-methyl-4-biphenylyl)-N-3-isoxazolyl-3-oxo-2,3-dihydro-6-isoquinolinesulfonamide] | 16 nM
18 | COc1cc(-c2ccc(Cl)c(C)c2)c(F)cc1-c1c(=O)[nH]cc2cc(S(=O)(=O)Nc3ccon3)ccc12 [Example 549, 4-(4′-chloro-2-fluoro-5-methoxy-3′-methyl-4-biphenylyl)-N-3-isoxazolyl-3-oxo-2,3-dihydro-7-isoquinolinesulfonamide] | 8 nM
19 | COc1cc(-c2cc(F)cc(Cl)c2)c(F)cc1-c1c(=O)[nH]cc2cc(S(=O)(=O)Nc3ccon3)ccc12 [Example 550, 4-(3′-chloro-2,5′-difluoro-5-methoxy-4-biphenylyl)-N-3-isoxazolyl-3-oxo-2,3-dihydro-7-isoquinolinesulfonamide] | 6 nM
20 | COc1cc(-c2cccc(F)c2)c(Cl)cc1-c1[nH]c(=O)cc2cc(S(=O)(=O)Nc3ncccn3)ccc12 [Example 553, 1-(2-chloro-3′-fluoro-5-methoxy-4-biphenylyl)-3-oxo-N-2-pyrimidinyl-2,3-dihydro-6-isoquinolinesulfonamide] | 45 nM
21 | COc1cc(-c2ccc(F)c(C3CC3)c2)c(C)cc1-c1ncnc2cc(S(=O)(=O)Nc3ccon3)ccc12 [Example 554, 4-(3′-cyclopropyl-4′-fluoro-5-methoxy-2-methyl-4-biphenylyl)-N-3-isoxazolyl-7-quinazolinesulfonamide] | 34 nM

More lines, now with the values ahead:

Row | IC50 | Structure (SMILES)
22 | 61 nM | COc1cc(-c2cc(F)cc(C3CC3)c2)c(C)cc1-c1ncnc2cc(S(=O)(=O)Nc3ccon3)ccc12 [Example 555, 4-(3′-cyclopropyl-5′-fluoro-5-methoxy-2-methyl-4-biphenylyl)-N-3-isoxazolyl-7-quinazolinesulfonamide]
23 | 113 nM | COc1cc(-c2cc(C)ccc2F)c(C)cc1-c1ncnc2cc(S(=O)(=O)Nc3ccon3)ccc12 [Example 556, 4-(2′-fluoro-5-methoxy-2,5′-dimethyl-4-biphenylyl)-N-3-isoxazolyl-7-quinazolinesulfonamide]
24 | 56 nM | COc1cc(-c2cc(Cl)ccc2F)c(C)cc1-c1ncnc2cc(S(=O)(=O)Nc3ccon3)ccc12 [Example 557, 4-(5′-chloro-2′-fluoro-5-methoxy-2-methyl-4-biphenylyl)-N-3-isoxazolyl-7-quinazolinesulfonamide]
25 | 41 nM | COc1cc(-c2cc(Cl)ccc2C)c(C)cc1-c1ncnc2cc(S(=O)(=O)Nc3ccon3)ccc12 [Example 558, 4-(5′-chloro-5-methoxy-2,2′-dimethyl-4-biphenylyl)-N-3-isoxazolyl-7-quinazolinesulfonamide]
26 | 57 nM | COc1cc(-c2cc(OC)c(-c3ncnc4cc(S(=O)(=O)Nc5ccon5)ccc34)cc2C)ccc1F [Example 559, 4-(4′-fluoro-3′,5-dimethoxy-2-methyl-4-biphenylyl)-N-3-isoxazolyl-7-quinazolinesulfonamide]
27 | 35 nM | COc1cc(F)cc(-c2cc(OC)c(-c3ncnc4cc(S(=O)(=O)Nc5ccon5)ccc34)cc2C)c1 [Example 560, 4-(3′-fluoro-5,5′-dimethoxy-2-methyl-4-biphenylyl)-N-3-isoxazolyl-7-quinazolinesulfonamide]
28 | 89 nM | COc1ccc(F)c(-c2cc(OC)c(-c3ncnc4cc(S(=O)(=O)Nc5ccon5)ccc34)cc2C)c1 [Example 561, 4-(2′-fluoro-5,5′-dimethoxy-2-methyl-4-biphenylyl)-N-3-isoxazolyl-7-quinazolinesulfonamide]
29 | 90 nM | COc1cc(-c2cccc(F)c2F)c(C)cc1-c1ncnc2cc(S(=O)(=O)Nc3ccon3)ccc12 [Example 562, 4-(2′,3′-difluoro-5-methoxy-2-methyl-4-biphenylyl)-N-3-isoxazolyl-7-quinazolinesulfonamide]
30 | 105 nM | COc1cc(-c2ccc(F)cc2F)c(C)cc1-c1ncnc2cc(S(=O)(=O)Nc3ccon3)ccc12 [Example 563, 4-(2′,4′-difluoro-5-methoxy-2-methyl-4-biphenylyl)-N-3-isoxazolyl-7-quinazolinesulfonamide]
31 | 94 nM | COc1cc(-c2cc(F)ccc2F)c(C)cc1-c1ncnc2cc(S(=O)(=O)Nc3ccon3)ccc12 [Example 564, 4-(2′,5′-difluoro-5-methoxy-2-methyl-4-biphenylyl)-N-3-isoxazolyl-7-quinazolinesulfonamide]
32 | 199 nM | COc1cc(-c2c(F)cccc2F)c(C)cc1-c1ncnc2cc(S(=O)(=O)Nc3ccon3)ccc12 [Example 565, 4-(2′,6′-difluoro-5-methoxy-2-methyl-4-biphenylyl)-N-3-isoxazolyl-7-quinazolinesulfonamide]
33 | 169 nM | COc1cc(-c2ccc3c(c2)CCC3)c(C)cc1-c1ncnc2cc(S(=O)(=O)Nc3ccon3)ccc12 [Example 566, 4-(4-(2,3-dihydro-1H-inden-5-yl)-2-methoxy-5-methylphenyl)-N-3-isoxazolyl-7-quinazolinesulfonamide]
34 | 533 nM | COc1cc(-c2cccc(F)c2)ccc1-c1c(=O)n(C)cc2cc(S(=O)(=O)Nc3ccon3)ccc12 [Example 589, 4-(3′-fluoro-3-methoxy-4-biphenylyl)-N-3-isoxazolyl-2-methyl-3-oxo-2,3-dihydro-7-isoquinolinesulfonamide]
